Test results reported in publication PMC12670396, “Crizotinib- or Ceritinib-Conjugated Platinum(IV) Prodrugs As Potent Multiaction Agents Inducing Antiproliferative Effects in 2D and 3D Cancer Cell Models” (Journal of Medicinal Chemistry, 2025).

Legend:
[1] = test system: CT26 and NCI-H2228 cells; experiment: Extracellular HMGB1 (ELISA); format: cell-based; settings: IC50 concentrations, 24 h
Experimental: The amount of HMGB1 in the medium was determined using an enzyme-linked immunosorbent assay (ELISA).
CT26 and NCI-H2228 cells were seeded in 48-well plates at a density of 5 × 10^4 cells/well and grown overnight. […] Aliquots of the supernatants were then withdrawn and processed using the HMGB1 Express ELISA kit (TECAN) according to the manufacturer’s instructions. The final absorbance, proportional to the HMGB1 amount, was read at 420 nm using a multimode SPARK reader (TECAN).

[2] = Reduction by L-ascorbic acid in phosphate buffer (RP-HPLC); format: physicochemical
Experimental: The reduction of Pt(IV) complexes was performed by reacting with 10 equiv of L-ascorbic acid in 10% DMSO in 100 mM phosphate buffer (pH 7.4) at 37 °C, and was monitored by reverse-phase analytical HPLC. The half-lives for the reduction were calculated from the decreasing peak areas as a function of time.
The reduction of the Pt(IV) complexes was performed in the presence of 10 equiv of L-ascorbic acid (AA) in phosphate buffer (100 mM, pH 7.4) at 37 °C using reverse-phase analytical HPLC. […] The platinum complexes were dissolved in 10% DMSO with 50% MeOH and added to 100 mM phosphate buffer (pH 7.4). […] The samples were injected and stored at 37 °C throughout the experiment.

In the case of `N.N.[Cl][Pt][Cl]` [cisPt, cisplatin, reference compound], the “HMGB1 externalization relative to nontreated control” value [1] is reported as 2 fold.

With `CC(Oc1cc(-c2cnn(C3CCN(C(=O)[O][Pt]([Cl])([Cl])[O]C(=O)CCCc4ccccc4)CC3)c2)cnc1N)c1c(Cl)ccc(F)c1Cl.N.N` (stereo not drawn) [compound 3, ctc-[Pt(NH3)2(crizotinib)(PhB)Cl2]] the “reduction half-life (t 1/2)” value ([2]; 10 equiv L-ascorbic acid, 10% DMSO in 100 mM phosphate buffer pH 7.4, 37 °C) was 7.7 h.

With `Cc1cc(Nc2ncc(Cl)c(Nc3ccccc3S(=O)(=O)C(C)C)n2)c(OC(C)C)cc1C1CCN(C(=O)[O][Pt]([Cl])([Cl])[O]C(=O)CCCc2ccccc2)CC1.N.N` [compound 7, ctc-[Pt(NH3)2(ceritinib)(PhB)Cl2]] the “solubility in phosphate buffer” value ([2]; 100 mM phosphate buffer pH 7.4) was “poor solubility”.
